Data as given in ChEMBL document CHEMBL1158080, “Dehydrozingerone, chalcone, and isoeugenol analogues as in vitro anticancer agents” (J Nat Prod, 2006).
≈ marks a conversion by molar mass, not a printed value.

Experiments:
Format in all cases: functional, cell-based
KB [1] = test: Cytotoxicity against human KB cells after 2 days by sulforhodamine B assay; conditions: 48 h
A549 = test: Cytotoxicity against human A549 cells after 2 days by sulforhodamine B assay; conditions: A549, 48 h
KB [2] = test: Cytotoxicity against multidrug-resistant human KB-VCR cells after 2 days by sulforhodamine B assay; conditions: 48 h

Compound | IC50 (KB [1]) | IC50 (A549) | IC50 (KB [2])
COc1ccc(/C=C/C(C)=O)cc1OC | 8.6 mg/L (≈ 41.7 µM) | 8 mg/L (≈ 38.8 µM) | 7.8 mg/L (≈ 37.8 µM)
COc1ccc(/C=C/C(C)=O)cc1O | 10 mg/L (≈ 52 µM) | > 10 mg/L | 8.2 mg/L (≈ 42.7 µM)
CC(=O)/C=C/c1cccc(F)c1O | 2.1 mg/L (≈ 11.7 µM) | 3 mg/L (≈ 16.7 µM) | 3 mg/L (≈ 16.7 µM)
COc1ccc(/C=C/C(=O)c2ccccc2)cc1O | 1 mg/L (≈ 3.93 µM) | 3.5 mg/L (≈ 13.8 µM) | 1 mg/L (≈ 3.93 µM)
CCOc1cccc(/C=C/C(C)=O)c1O | 2 mg/L (≈ 9.7 µM) | 2.3 mg/L (≈ 11.2 µM) | 1.9 mg/L (≈ 9.21 µM)
COc1ccc(/C=C/C(C)=O)c(O)c1 | 3.8 mg/L (≈ 19.8 µM) | 3.5 mg/L (≈ 18.2 µM) | 4 mg/L (≈ 20.8 µM)
COc1cccc(/C=C/C(=O)c2ccccc2)c1O | 2.4 mg/L (≈ 9.44 µM) | 0.6 mg/L (≈ 2.36 µM) | 1.3 mg/L (≈ 5.11 µM)
COc1ccc(/C=C/C(C)=O)cc1F | 4.3 mg/L (≈ 22.1 µM) | 5.5 mg/L (≈ 28.3 µM) | 5 mg/L (≈ 25.7 µM)
C=CCOc1ccc(/C=C/C)cc1OC | > 10 mg/L | – | > 10 mg/L
C/C=C/c1ccc(OCC=C(C)C)c(OC)c1 | > 10 mg/L | – | > 10 mg/L
C=CCOc1ccc(/C=C/C(C)=O)cc1OC | 6.8 mg/L (≈ 29.3 µM) | 5.8 mg/L (≈ 25 µM) | 5 mg/L (≈ 21.5 µM)
C/C=C/c1ccc(OCCC(C)C)c(OC)c1 | > 10 mg/L | – | > 10 mg/L
C/C=C/c1ccc(OCCC)c(OC)c1 | > 10 mg/L | – | > 10 mg/L
C/C=C/COc1ccc(/C=C/C)cc1OC | > 10 mg/L | – | > 10 mg/L
COc1cc(/C=C/C(C)=O)ccc1OCC=C(C)C | 5.7 mg/L (≈ 21.9 µM) | 3.8 mg/L (≈ 14.6 µM) | 3.5 mg/L (≈ 13.4 µM)
C/C=C/COc1ccc(/C=C/C(C)=O)cc1OC | 4.8 mg/L (≈ 19.5 µM) | 6.8 mg/L (≈ 27.6 µM) | 3.4 mg/L (≈ 13.8 µM)
COc1cc(/C=C/C(C)=O)ccc1OC/C=C(\C)CCC=C(C)C | 2.2 mg/L (≈ 6.7 µM) | 3.4 mg/L (≈ 10.4 µM) | 3.3 mg/L (≈ 10 µM)
CCOc1ccc(/C=C/C(C)=O)cc1OC | 5.5 mg/L (≈ 25 µM) | > 10 mg/L | 8 mg/L (≈ 36.3 µM)
CCOc1cc(/C=C/C(C)=O)ccc1O | 7.7 mg/L (≈ 37.3 µM) | 8.5 mg/L (≈ 41.2 µM) | 7.8 mg/L (≈ 37.8 µM)
COc1cc(/C=C/C(=O)c2ccccc2)ccc1O | 3.5 mg/L (≈ 13.8 µM) | 2.3 mg/L (≈ 9.04 µM) | 1.9 mg/L (≈ 7.47 µM)
CCCOc1ccc(/C=C/C(C)=O)cc1OC | 6.5 mg/L (≈ 27.7 µM) | 5.8 mg/L (≈ 24.8 µM) | 4.2 mg/L (≈ 17.9 µM)
COc1cc(/C=C/C(C)=O)ccc1OCCC(C)C | 3.6 mg/L (≈ 13.7 µM) | 7.2 mg/L (≈ 27.4 µM) | 3.2 mg/L (≈ 12.2 µM)
COc1ccc(/C=C/C(=O)c2ccccc2)c(O)c1 | 2 mg/L (≈ 7.87 µM) | 3.8 mg/L (≈ 14.9 µM) | 2 mg/L (≈ 7.87 µM)
COc1cc(/C=C/C(C)=O)ccc1OC/C=C(\C)CC/C=C(\C)CCC=C(C)C | 6.5 mg/L (≈ 16.4 µM) | 7.4 mg/L (≈ 18.7 µM) | 7.4 mg/L (≈ 18.7 µM)
C/C=C/c1ccc(OC/C=C(\C)CC/C=C(\C)CCC=C(C)C)c(OC)c1 | > 10 mg/L | – | > 10 mg/L
COc1cccc(/C=C/C(C)=O)c1O | 3.8 mg/L (≈ 19.8 µM) | 2.5 mg/L (≈ 13 µM) | 2 mg/L (≈ 10.4 µM)
COc1cc(/C=C/C(=O)CC(=O)/C=C/c2ccc(O)c(OC)c2)ccc1O [CURCUMIN] | 5.5 mg/L (≈ 14.9 µM) | 5.2 mg/L (≈ 14.1 µM) | 3.1 mg/L (≈ 8.42 µM)
COc1cc(/C=C/C(C)=O)ccc1O [DEHYDROZINGERONE] | > 10 mg/L | > 10 mg/L | > 10 mg/L
COc1cccc2c1C(=O)c1c(O)c3c(c(O)c1C2=O)C[C@@](O)(C(=O)CO)C[C@@H]3O[C@H]1C[C@H](N)[C@H](O)[C@H](C)O1 [DOXORUBICIN] | 0.1 mg/L (≈ 0.184 µM) | 0.1 mg/L (≈ 0.184 µM) | 2.7 mg/L (≈ 4.97 µM)
C/C=C/c1ccc(OC)c(OC)c1 [METHYLISOEUGENOL] | > 10 mg/L | – | > 10 mg/L
